Measurements: patent US6303596A, “Use of taurolidine for treatment of leukemias” (priority 2000, dated 2001)

System: peripheral blood monocytes
Test: cell size by flow cytometry (FSC), peripheral blood monocytes
Type: cell-based, human
Conditions: taurolidine 6 h
Procedure: FIG. 12A, FIG. 12B, FIG. 12C, and FIG. 12D are flow cytometric analyses depicting changes in cell morphology following taurolidine treatment. MM6 and PBMC were treated for three hours with taurolidine, and then treated and untreated control cells were processed for flow cytometry. Monocytes in PBMC samples were identified by staining with FITC-conjugated anti-CD14, and lymphocytes by FITC-conjugated anti-CD3 and PE-conjugated anti-CD19. FIG. 12A represents untreated MM6 cells; FIG. 12B represents MM6 cells treated with 50 μg/ml taurolidine; FIG. 12C represents untreated PBMC; and FIG. 12D represents PBMC treated with 75 μg/ml taurolidine. M=monocytes; L=lymphocytes.
A Becton-Dickinson FACSCalibur instrument was used for flow cytometric analysis of cells. Assessment of cell diameter (forward scatter; FCS) and granularity (side scatter; SSC).was carried out on unfixed cells. Discrimination between lymphocytes and monocytes was made possible by their characteristic differences in FSC and SSC, and confirmed by staining monocytes with FITC-labeled anti-CD14 antibodies and lymphocytes with a combination of FITC-conjugated anti-CD3 and PE-conjugated anti-CD19. After incubation with taurolidine (with or without concomitant LPS treatment), cells were rinsed twice in phosphate-buffered saline containing 0.1% bovine serum albumin (PBSA) and 1×10^6 cells were resuspended in 0.1 ml PBSA. […]

In the case of `O=S1(=O)CCN(CN2CCS(=O)(=O)NC2)CN1` [taurolidine, 4,4'-methylenebis(perhydro-1,2,4-thiadiazin 1,1-dioxide)], the “decrease in FSC” value is reported as “approximately 30%”.
